Laboratory results as given in patent US20090258836A1, “EFFECTIVE DELIVERY OF CROSS-SPECIES A3 ADENOSINE-RECEPTOR ANTAGONISTS TO REDUCE INTRAOCULAR PRESSURE” (The Trustees of The University of Pennsylvania, priority 2006, published 2009).

Key:
[1] = system: mouse IOP; assay: Mouse IOP after topical application, non-invasive pneumotonometry; assay type: in vivo, Black Swiss mice
Outline: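 Black Swiss outbred mice (7-9 weeks, mixed sex) under intraperitoneal ketamine plus topical proparacaine 0.5%. Drugs applied topically as […] droplets three times, containing <2% DMSO and 0.0005% benzalkonium chloride; IOP measured non-invasively by pneumotonometry at 10-min intervals from a stereotactically fixed probe position.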

[2] = system: mouse IOP; assay: Mouse IOP after topical application, invasive servo-null micropipette system (SNMS); assay type: in vivo, Black Swiss mice; details: after topical application
Outline: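 Black Swiss outbred mice, 7-9 weeks, under i.p. ketamine plus topical proparacaine. Drugs applied topically as droplets with <2% DMSO (none for hydrophilic compounds) and 0.0005% benzalkonium chloride, 295-300 mOsm. IOP measured invasively by servo-null micropipette 10 min after a single application.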

## CCOC(=O)C1=C(C)NC(c2ccccc2)=C(C(=O)OCc2ccccc2)C1C#Cc1ccccc1 (racemic) [MRS-1191, 3-ethyl 5-benzyl-2-methyl-6-phenyl-4-phenylethynyl-1,4-(±)-dihydropyridine-3,5-dicarboxylate]
[1]; after the initial application, end of the experiments
  time of maximum decrease in IOP observed pneumotonometrically: 30 min
[1]; after topical application
  time to begin lowering mouse IOP significantly, non-invasive: 30 min
[2]
  time to begin to lower IOP, invasive servo-null technique: within about a minute
